Experimental data as given in patent publication US20100082097A1, “Article Containing Segregated Biguanide and Lewis Acid” (priority 2008, published 2010).

Assays:
Type in all cases: physicochemical
[1] = CHA stability in polyurethane films containing no GV (HPLC); conditions: vacuum dried and humidified films, 25, 35, 45, 55° C., 20 day incubation
Protocol: (§1) Degradation is reported in the following examples as measured by HPLC as peak area of the degradant peak divided by the total peak area of the chlorhexidine peak and the degradant peak (i.e. Peak Areadegradant/[Peak Areadegradant+Peak Areachlorhexidine]*100). The peak areas are determined from integration of chromatograms.
(§2) A high pressure liquid chromatography (HPLC) analytical method was developed to quantify Gentian violet and chlorhexidine. Both compounds have ultraviolet or visible wavelength absorbance, and so were characterized using a UV-Vis diode array detector. Chlorhexidine and Gentian violet are identified by retention times versus a set of external standards. The external standards also form a calibration curve that is used to quantify the chlorhexidine and Gentian violet content in samples. The method is summarized as follows:
(§3) The sample preparation method, prior to HPLC analysis, is summarized as follows: samples were placed in centrifuge tubes, to which a volume of tetrahydrofuran (THF) was added (according to cited protocols or per examples). The tubes were vortexed until the sample was completely dissolved. […]
Samples were analyzed post air drying and post 20 day incubation. […]

[2] = CHA stability in polyurethane films after ethylene oxide (ETO) sterilization; conditions: polyurethane films containing only CHA
Protocol: as §1, §2
as §3, with “dissolved. For samples used as medical device coatings where a polymer was also present, a volume of deionized water was then added and the tubes were again vortexed for 10 minutes to precipitate the any polymer in the sample.” for “dissolved.”

[3] = Brilliant Green-Chlorhexidine formulation in THF/Methanol solvent mixture, observation of solution; conditions: with BG, room temperature
Protocol: 1.04 g Tecoflex 60D and 3.28 g Tecoflex 93A in 65 g were added in a glass jar containing 65 g of Tetrahydrofuran and stirred for four (4) hours at 45° C. Once all resin solids have dissolved, 23 g methanol added into the mixture and stirred for one (1) hour. 2.939 g chlorhexidine diacetate (CHA) was added into the solution mixture and stirred overnight at room temperature. Different Brilliant green (BG) concentrations (0.1 wt %-1.0 wt %) were added per the Table 4 below to an aliquot of the polymer-CHA solution and stirred until Brilliant Green dissolved:
Table 5 below lists different formulations of BG and CHA.

[4] = Brilliant Green-Chlorhexidine formulation in DMF/THF solvent mixture, observation of solution; conditions: 40/60 THF/DMF, with BG, room temperature
Protocol: In this experiment 40/60 THF/DMF solvent mixture was used instead of THF/Methanol from Example 17. Different Brilliant green (BG) concentrations (0.1 wt %-1.0 wt %) were added per the Table 5 below to an aliquot of the polymer-CHA solution (in Example 17) and stirred until Brilliant Green dissolved: […]

[5] = GV stability in polyurethane films containing no CHA (HPLC)
Description: as §2
The sample preparation method, prior to HPLC analysis, is summarized as follows: samples were placed in centrifuge tubes, to which a volume of tetrahydrofuran (THF) was added (according to cited protocols or per examples). The tubes were vortexed until the sample was completely dissolved. For samples used as medical device coatings where a polymer was also present, a volume of deionized water was then added and the tubes were again vortexed for 10 minutes to precipitate the any polymer in the sample. The tubes were then centrifuged for 10 minutes at 4000 RPM to spin the polymer down out of the solution. A small amount of supernatant was transferred to an HPLC vial for analysis.
Polyurethane films, used in the studies described in examples 4-6 and 9-11, were prepared as follows: 500 g of coating solution was prepared by dissolving 3.74% (w/w) Tecoflex 93A resin and 1.17% (w/w) Tecoflex 60D resin in a 74/26% mixture of THF/Methanol. The mixture was stirred until all of the resin was completely dissolved. 3.07% (w/w) chlorhexidine diacetate (CHA) was then added to the coating solution. Solutions containing different concentrations of GV were made by adding 0.1, 0.2, 0.4, 0.6, 0.8 or 1.0% (w/w) GV to 50 g aliquots of the CHA containing coating solution (or resin only solution in the case of GV only coating solution). 0.5 g of the CHA only, GV only, or 0.1-1.0% GV/CHA solutions was added to the bottom of a 30 mL glass vial and allowed to dry under ambient conditions overnight to evaporate the solvent and cast films in the vials. Vacuum dried samples were prepared by further drying the film containing vials at 25° C. under 30 in, Hg for 48 hours. Humidified samples were prepared by adding 75 μL of deionized water to the air dried samples and capping for the duration of the studies.
Gentian violet only films were prepared according to example 2. Half of the vials were then spiked with 75 μL of deionized water and capped to create a 100% humidity environment, while the other half were vacuum dried ([…]) at 25° C. for 48 hours. The vials were then incubated in an oven at 25° C., 35° C., 45° C., and 55° C. for 20 days.
Samples were analyzed post air drying and post 20 day incubation. Sample analysis was performed using the method in Example 1.
Peak area ratios for pararosaniline chlorides are shown in Table 3 at different temperatures for 20 days. The peak area ratios for each temperature are calculated as follows: (Individual peak area)/Σ(individual peak)×100%. The variations are within the limits of experimental error further confirming the stability of GV in polyurethane films containing only GV.

Row | degradation peaks in the chromatograms [1] | stability when ETO sterilized [2] | stirring time after which chlorhexidine diacetate precipitated [3] | stirring time after which chlorhexidine diacetate precipitated [4] | degradation products detected in the chromatograms ([5]; vacuum dried and humidified GV only films, 25-55° C., 20 days) | Peak area ratio for pararosaniline chlorides ([5]; 0 day control) | Peak area ratio for pararosaniline chlorides ([5]; 25° C. at day 20) | Peak area ratio for pararosaniline chlorides ([5]; 35° C. at day 20) | Peak area ratio for pararosaniline chlorides ([5]; 45° C. at day 20) | Peak area ratio for pararosaniline chlorides ([5]; 55° C. at day 20) | SMILES
1 | no degradation peaks | stable when sterilized | 30 min | 30 min |  |  |  |  |  |  | CC(=O)O.CC(=O)O.NC(=N\CCCCCC/N=C(N)/N=C(\N)Nc1ccc(Cl)cc1)/N=C(\N)Nc1ccc(Cl)cc1 [CHA, chlorhexidine diacetate]
2 |  |  |  |  | no degradation products were detected |  |  |  |  |  | CN(C)c1ccc(C(=C2C=CC(=[N+](C)C)C=C2)c2ccc(N(C)C)cc2)cc1 [GV, hexa-methyl pararosaniline chloride, reference compound]
3 |  |  |  |  |  | 42% | 43% | 44% | 42% | 45% | CN(C)c1ccc(C(=C2C=CC(=[N+](C)C)C=C2)c2ccc(N(C)C)cc2)cc1.[Cl-] [Hexamethyl, hexamethylpararosaniline chloride]
4 |  |  |  |  |  | 44% | 43% | 43% | 44% | 43% | CN=C1C=CC(=C(c2ccc(N(C)C)cc2)c2ccc(N(C)C)cc2)C=C1.Cl [Pentamethyl, pentamethylpararosaniline chloride]
5 |  |  |  |  |  | 14% | 14% | 13% | 14% | 12% | CN(C)c1ccc(C(=C2C=CC(=[N+](C)C)C=C2)c2ccc(N)cc2)cc1.[Cl-] [Tetramethyl, tetramethylpararosaniline chloride]
